Series [1] has as its system human-derived glioma cell line U251MG. Description: Cell proliferative capacity / cell viability of human-derived glioma cell line U251MG (CCK-8). It is filed as cell-based. To be noted: for cell viability (proliferation) vs the control group: after 96 hours, 0.1, 1.0, 5 or 10 μM. Here is the method: (§1) As the glioma cell lines, the mouse-derived glioma cell line GL261 (transferred from Graduate School of Health Sciences, Gunma University) and the human-derived glioma cell line U251MG (DS Pharma Biomedical Co., Ltd.) were used. First, the glioma cell lines were seeded in a 96-well plate (FALCON) at 2,000 cells/well. Using Dulbecco's modified Eagle's medium (DMEM) (Nacalai Tesque, Inc.) containing 10% fetal bovine serum (FBS) (Valeant Pharmaceuticals International, Inc.), 100 U/mL penicillin, and 100 μg/mL streptomycin (Meiji Seika Pharma Co., Ltd.), seeded cells were cultured for 24 hours at 37° C. under 5% CO2. Then, the medium was replaced with DMEM containing 10% FBS so that the concentration was 90 μL/well. After the medium replacement, a test solution was further added according to each test group. Specifically, in the control group, 10 μL of PBS containing 0.1% DMSO (Nacalai Tesque, Inc.) was added (n=6). In the temozolomide group, temozolomide (Tokyo Chemical Industry Co., Ltd.) was dissolved in PBS containing 0.1% DMSO to obtain a temozolomide solution. Then, 10 μL of the temozolomide solution was added so that the final concentration of temozolomide was 300 μM (n=6). In the astaxanthin and adonixanthin groups, astaxanthin or adonixanthin was dissolved in PBS containing 0.1% DMSO to obtain an astaxanthin or adonixanthin solution. Then, 10 μL each of the astaxanthin or adonixanthin solution was added so that the final concentration of astaxanthin or adonixanthin was 0.1, 1.0, 5, or 10 μM (n=6). At 72 hours and 96 hours after addition of each test solution, the viable cell count of GL261 and U251MG was measured using cell counting kit-8 (CCK-8) (DOJINDO LABORATORIES). Specifically, using a microplate reader (Varioscan Flash 2.4, Thermo Fisher Scientific K.K.) at the time of addition and 2 hours after addition of CCK-8, the absorbance was measured at 450 nm, and the viable cell count was measured using the absorbance at 650 nm as a reference. For example, in the case of 72-hour treatment, CCK-8 was added 70 hours after addition of the test solution, and the absorbance was measured. The absorbance was measured again 2 hours after addition of CCK-8. The value obtained by subtracting the absorbance immediately after addition of CCK-8 as the background from the absorbance 2 hours after addition of CCK-8 was used as data. In the same manner as in Test Example 1, effects of adonirubin or zeaxanthin on the cell proliferative capacity after 72 hours of a human- or mouse-derived glioma cell line were investigated. As adonirubin, the adonirubin obtained in Preparation Example 1 was used, and as zeaxanthin, Zeaxanthin (manufacturer code ASB-00026504, ChromaDex Corporation) was used. Specifically, the glioma cell lines were seeded in a 96-well plate at 2,000 cells/well. Using DMEM containing 10% FBS, 100 U/mL penicillin, and 100 μg/mL streptomycin, seeded cells were cultured for 24 hours at 37° C. under 5% CO2. Then, the medium was replaced with DMEM containing 10% FBS so that the concentration was 90 μL/well. After the medium replacement, a test solution was further added according to each test group. Specifically, in the control group, 10 μL of PBS containing 0.1% DMSO (Nacalai Tesque, Inc.) was added (n=6). In the temozolomide group, temozolomide was dissolved in PBS containing 0.1% DMSO to obtain a temozolomide solution. Then, 10 μL of the temozolomide solution was added so that the final concentration of temozolomide was 300 μM (n=6). In the adonirubin and zeaxanthin groups, adonirubin or zeaxanthin was dissolved in PBS containing 0.1% DMSO to obtain an adonirubin or zeaxanthin solution. Then, 10 μL each of the adonirubin or zeaxanthin solution was added so that the final concentration of adonirubin or zeaxanthin was 0.1, 1.0, 5, or 10 μM (n=6). At 72 hours after addition of each test solution, the cell proliferative capacity of GL261 and U251MG was evaluated using CCK-8 in the same manner as in Test Example 1.

For series [2], the system named is mouse-derived glioma cell line GL261. Description: Cell proliferative capacity / cell viability of mouse-derived glioma cell line GL261 (CCK-8). It counts as cell-based. As to conditions: for average value of cell viability, concentration dependence: 0.1 to 10 μM; for cell viability (proliferation) vs the control group: GL261, after 96 hours, 0.1, 1.0, 5 or 10 μM. Here is the method:
as §1

Series [3] in a line: Intracerebral distribution of astaxanthin or adonixanthin in cynomolgus monkey (HPLC of brain organs). It counts as in vivo. To be noted: 50 mg/kg body weight once daily for 10 days into the stomach, FIG. 5. Here is the method:
Each of the astaxanthin and the adonixanthin obtained in Preparation Example 1 was weighed, followed by suspension by adding olive oil (product number 150-00276, manufactured by Wako Pure Chemical Industries, Ltd.) to prepare so that each concentration was 10 mg/mL, thus obtaining an astaxanthin dosing solution and an adonixanthin dosing solution. Each dosing solution was prepared at the time of use, and stored on ice and protected from light until administration.
As experimental animals, cynomolgus monkeys were used. […] The dose in each administration was calculated based on the latest body weight at each administration time point (body weight was measured using an electric balance (HP-40K or GP-40K, both of which were manufactured by A&D Company, Limited) on each of the day of initiation of acclimation, the day of end of acclimation, the day of initiation of administration, and before administration on the day 8 of administration). […]
Each of the concentration of adonixanthin in each organ collected from the adonixanthin-administering monkey (concentration relative to the weight of each organ) and the concentration of astaxanthin in each organ collected from the astaxanthin-administering monkey (concentration relative to the weight of each organ) was measured. […]

Setting [4] is: after 72 hours, 0.1, 1.0, 5 or 10 μM.
Where [5] appears, read: GL261, after 72 hours, all concentrations (0.1, 1.0, 5 or 10 μM).
Setting [6] is: GL261, after 72 hours, 10 μM group.

As to `CC1=C(/C=C/C(C)=C/C=C/C(C)=C/C=C/C=C(C)/C=C/C=C(C)/C=C/C2=C(C)C(=O)C(O)CC2(C)C)C(C)(C)CCC1=O` (stereo not drawn) [adonirubin, 3-hydroxy-β,β-carotene-4,4′-dione], the entries for the “cell proliferative capacity vs the control group” value in series [1] (setting [4]) and in series [2] (setting [5]) were “tends to be inhibited at any concentration” and “significantly inhibited at any concentration”, respectively. Moreover, the “proliferation inhibition compared with the zeaxanthin group” value in series [2] (GL261, after 72 hours) is listed as “inhibited at a higher level”.
With `CC1=C(/C=C/C(C)=C/C=C/C(C)=C/C=C/C=C(C)/C=C/C=C(C)/C=C/C2=C(C)C[C@@H](O)CC2(C)C)C(C)(C)C[C@H](O)C1` [zeaxanthin, β,β-carotene-3,3′-diol], the “proliferation inhibition compared with the adonirubin group” value in series [1] (after 72 hours) is given as “inhibited at a higher level”. For the same compound, the results for the “cell proliferative capacity vs the control group” value in series [1] (setting [4]), in series [2] (setting [6]) and in series [2] (setting [5]) were “significantly inhibited at any concentration”, “significantly inhibited” and “tends to be inhibited at any concentration”, respectively.
As for `CC1=C(/C=C/C(C)=C/C=C/C(C)=C/C=C/C=C(C)/C=C/C=C(C)/C=C/C2=C(C)C(=O)C(O)CC2(C)C)C(C)(C)CC(O)C1` (stereo not drawn) [adonixanthin, 3,3′-dihydroxy-β,β-carotene-4-one], the “cell proliferative capacity vs the control group” value is reported as “tends to be concentration-dependently inhibited” in series [1] (setting [4]); “significantly inhibited” in series [1] (after 72 hours, 1, 5, and 10 μM groups); “significantly inhibited” in series [2] (setting [5]). The “cell viability (proliferation) vs the control group” value in series [1] (FIG. 1) and in series [2] (FIG. 2) was “significantly inhibited at any concentration” each time. Also, the “proliferation inhibition compared with the astaxanthin group” value in series [1] (after 96 hours, FIG. 1) was “inhibited at a higher level”; in series [2] (GL261, after 96 hours, FIG. 2), “inhibited at a higher level”. Further, the “average value of cell viability, concentration dependence” value in series [2] (GL261, after 72 hours) is “tends to concentration-dependently decrease”. Also, the “concentration in the brain compared with astaxanthin” value in series [3] is “transferred into the brain at a higher concentration”. In addition, in series [3] (organs collected after blood sampling 4 hours after last administration), the “concentration in each organ of the brain (transfer into the brain and retention)” value was “transferred into the brain at a high concentration”.
As to `CC1=C(/C=C/C(C)=C/C=C/C(C)=C/C=C/C=C(C)/C=C/C=C(C)/C=C/C2=C(C)C(=O)C(O)CC2(C)C)C(C)(C)CC(O)C1=O` (stereo not drawn) [astaxanthin, 3,3′-dihydroxy-β,β-carotene-4,4′-dione], the entries for the “cell proliferative capacity vs the control group” value in series [1] (setting [4]) and in series [2] (setting [6]) were “tends to be concentration-dependently inhibited” and “significantly inhibited”, respectively. Also, the “cell viability (proliferation) vs the control group” value in series [1] (FIG. 1) and in series [2] (FIG. 2) was “significantly inhibited at any concentration” in each case. Also, in series [2] (GL261, after 72 hours), the “average value of cell viability, concentration dependence” value is given as “tends to concentration-dependently decrease”.

The values above are taken from US20210346315A1, “COMPOSITION FOR INHIBITION OR TREATMENT OF BRAIN TUMORS OR SYMPTOMS ATTRIBUTABLE THERETO” (ENEOS Corporation, priority 2018, published 2021).
